Experimental data published in patent US20110314564A1, “ENZYMES AND METHODS FOR HYDROLYSING PHENYLUREAS, CARBAMATES AND ORGANOPHOSPHATES” (priority 2008, published 2011).

How the values were obtained:
[1] = target: PuhB (Mycolicibacterium brisbanense, UniProt B8R4K0); assay: Hydrolysis of phenylurea, carbamate and organophosphate substrates by purified PuhB (LCMS / FBBS / A400 assays)
[2] = target: PuhA (Arthrobacter globiformis, UniProt B8R4L9); assay: Hydrolysis of phenylurea, carbamate and organophosphate substrates by purified PuhA (LCMS / FBBS / A400 assays)
[3] = system: CN(C)C(=O)Nc1ccc(Cl)c(Cl)c1; assay: purified protein, by the assay type; conditions: pH 6.9, 25.0 °C

| Molecule | hydrolysis / turnover of the substrate (in words) ([1]; PuhB) | hydrolysis / turnover of the substrate (in words) ([2]; PuhA) | other results |
| --- | --- | --- | --- |
| CCOP(=O)(OCC)Oc1ccc([N+](=O)[O-])cc1 [paraoxon ethyl] | only slightly lower than isoproturon | only slightly lower than isoproturon | hydrolysis / turnover of the substrate (in words) ([1]; PuhB, listed as ethyl paraoxon): turned over by both proteins; hydrolysis / turnover of the substrate (in words) ([2]; PuhA, listed as ethyl paraoxon): turned over by both proteins |
| CON(C)C(=O)Oc1ccc(Cl)c(Cl)c1 [carbamate analogue of linuron, 3,4-dichlorophenyl N-methoxy-N-methylcarbamate] | as efficiently as the phenylurea | as efficiently as the phenylurea |  |
| CON(C)C(=O)Nc1ccc(Cl)c(Cl)c1 [linuron] |  |  | turnover rate (kcat), fold higher than that of diuron ([1]; enzyme not given): ~9 fold; turnover rate (kcat), fold higher than that of diuron ([2]; enzyme not given): ~9 fold |
| CCN(CC)C(=O)SCc1ccc(Cl)cc1 [thiobencarb] | neither enzyme catalysed the hydrolysis | neither enzyme catalysed the hydrolysis |  |
| CCCCN(C)C(=O)Nc1ccc(Cl)c(Cl)c1 [neburon] | no detectable hydrolysis | no detectable hydrolysis |  |
| CN(C)C(=O)Oc1ccc([N+](=O)[O-])cc1 [DMNPC, N-dimethyl, O-4-nitrophenyl carbamate] | turned over at a higher efficiency than poor phenylurea substrates | turned over at a higher efficiency than poor phenylurea substrates |  |
| Cc1nc(N(C)C)nc(OC(=O)N(C)C)c1C [pirimicarb] | slowly turned over | slowly turned over | catalytic efficiency, fold lower than diuron ([1]; PuhB): 10^3 fold; catalytic efficiency, fold lower than diuron ([2]; PuhA): 10^4 fold |
| O=C(Nc1ccccc1)Nc1cnns1 [thidiazuron] | no detectable hydrolysis | no detectable hydrolysis |  |
| PuhB (Mycolicibacterium brisbanense) |  |  | Km ([3]; other: PuhB): 11.0 µM |
| CNC(=O)Oc1cccc2ccccc12 [carbaryl] | neither enzyme catalysed the hydrolysis | neither enzyme catalysed the hydrolysis |  |
| CN(C)C(=O)Nc1ccc(-n2nc(C(C)(C)C)oc2=O)c(Cl)c1 [dimefuron] | no detectable hydrolysis | no detectable hydrolysis |  |
| PuhA (Arthrobacter globiformis) |  |  | Km ([3]; other: PuhA): 55.0 µM |
| CC1CCCCC1NC(=O)Nc1ccccc1 (stereo not drawn) [siduron] | no detectable hydrolysis | no detectable hydrolysis |  |
| CNC(=O)N(C)c1nnc(C(C)(C)C)s1 [tebuthiuron] | no detectable hydrolysis | no detectable hydrolysis |  |
